Reference: ChEMBL document CHEMBL1201862, “PubChem BioAssay data set” (2004)
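Five compound concentrations were applied to cells in 96-well plates for 48 hours; endpoints were derived by simple linear interpolation of the resulting dose-response curve. GI50 = concentration required for 50% inhibition of growth.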 Calls of active or inactive are those of the source. Cut-off read from the data, not from the text of the source: active = GI50 up to about 1.1 µM and inactive = higher.

Columns and labels:
Experiment in all cases: inhibition of tumour cell growth, NCI panel, 48 h
[1] = system: A498
[2] = system: DU-145
[3] = system: Hs-578T
[4] = system: KM12
[5] = system: M14
[6] = system: MDA-MB-435
[7] = system: MDA-N
[8] = system: Malme-3M
[9] = system: NCI-H522
[10] = system: PC-3
[11] = system: SN12C
[12] = system: T47D
[13] = system: UACC-257
[14] = system: UO-31
[15] = system: 786-0
[16] = system: HCT-116

Measured: GI50

O=c1cnn(C/C=C\CO)c(=O)[nH]1
inactive: [1] > 100 µM | [2] > 100 µM | [3] > 100 µM | [4] > 100 µM | [5] > 100 µM | [6] > 100 µM | [7] > 100 µM | [8] > 100 µM | [9] > 100 µM | [10] > 100 µM | [11] > 100 µM | [12] > 100 µM | [13] > 100 µM | [14] > 100 µM

CC(C)c1nccn1Cc1ccc(Cl)cc1Cl
inactive: [15] 38 µM | [1] 55.5 µM | [2] 14.8 µM | [16] 16.3 µM | [4] 30.5 µM | [5] 38.1 µM | [6] 49.7 µM | [7] 38.6 µM | [8] 41.2 µM | [9] 21.2 µM | [10] 46.5 µM | [11] 26.5 µM | [13] 17.7 µM | [14] 24.9 µM

CC1(C)C2CCC1(C)[C@H](O)[C@H]2Nc1cc(C(F)(F)F)cc(C(F)(F)F)c1 (stereo partly specified)
inactive: [15] 3.85 µM | [1] > 100 µM | [2] 3.66 µM | [16] 2.72 µM | [4] 2.88 µM | [5] 4.06 µM | [6] 3.42 µM | [8] 3.27 µM | [10] 2.47 µM | [12] 2.59 µM | [13] 3.78 µM | [14] 3.51 µM

COc1ccc(CCn2ccc(C)n2)c(OC)c1
inactive: [2] > 100 µM | [16] > 100 µM | [3] > 100 µM | [4] > 100 µM | [5] > 100 µM | [6] > 100 µM | [7] > 100 µM | [8] > 100 µM | [10] > 100 µM | [11] 46 µM | [12] 68.9 µM | [13] > 100 µM | [14] 46.6 µM

O=C1OC(c2ccccc2Br)=N/C1=C/c1ccccc1
inactive: [1] > 100 µM | [2] > 100 µM | [16] 37.2 µM | [3] 31.3 µM | [4] 19 µM | [5] 18.6 µM | [6] 29.2 µM | [7] 25.4 µM | [8] 19.6 µM | [9] 26 µM | [10] > 100 µM | [12] > 100 µM | [13] > 100 µM | [14] 45.9 µM

CC(C)=C[C@@H]1C[C@H](C)[C@H]2CC[C@H](C)[C@H]3C(=O)C(O)=C(C)C(=O)[C@]123
inactive: [15] > 100 µM | [1] > 100 µM | [2] > 100 µM | [16] 88.5 µM | [3] > 100 µM | [4] > 100 µM | [5] > 100 µM | [6] > 100 µM | [7] > 100 µM | [8] > 100 µM | [9] 48.1 µM | [10] 27.4 µM | [11] > 100 µM | [13] > 100 µM | [14] > 100 µM

NC(=O)c1oc([N+](=O)[O-])c(-c2ccccc2)c1-c1ccccc1
inactive: [15] 25.1 µM | [2] 26.9 µM | [16] 15.4 µM | [4] 13.6 µM | [5] 17.7 µM | [6] 14.9 µM | [8] 3.49 µM | [9] 12.6 µM | [10] 15.5 µM | [12] 16.3 µM | [13] 18 µM | [14] 16.3 µM
active: [3] 0.0752 µM | [11] 0.0367 µM

CCC(Sc1cc(Cl)c(C)cc1S(=O)(=O)Nc1nc(N)nc(N(C)C)n1)C(=O)O (stereo unspecified)
inactive: [15] > 10 µM | [1] > 10 µM | [2] > 10 µM | [16] > 10 µM | [3] > 10 µM | [4] > 10 µM | [5] > 10 µM | [7] > 10 µM | [8] > 10 µM | [9] > 10 µM | [10] > 10 µM | [11] > 10 µM | [12] > 10 µM | [13] > 10 µM | [14] > 10 µM

CC(Cc1ccc2c(c1)OCO2)N(C)C(=O)C1=CCN(C)CC1 (stereo unspecified)
inactive: [15] > 100 µM | [2] > 100 µM | [16] > 100 µM | [3] > 100 µM | [4] > 100 µM | [5] > 100 µM | [6] > 100 µM | [7] > 100 µM | [8] > 100 µM | [9] > 100 µM | [10] > 100 µM | [11] > 100 µM | [12] > 100 µM | [13] > 100 µM | [14] > 100 µM

COc1cccc(CCn2c(N)c(C#N)c3ccc([N+](=O)[O-])cc3c2=O)c1
inactive: [15] > 46.5 µM | [1] > 100 µM | [2] > 46.5 µM | [16] > 46.5 µM | [3] 39.9 µM | [4] > 31.6 µM | [5] > 31.6 µM | [10] > 46.5 µM | [11] > 100 µM | [12] > 46.5 µM | [13] > 31.6 µM | [14] > 46.5 µM
active: [6] 0.22 µM | [7] 0.256 µM

CC(=O)N(C)SCC(NC(=O)C(Cc1ccccc1)NC(=O)OCc1ccccc1)C(=O)NC(Cc1ccccc1)C(=O)NC(Cc1cn(C=O)c2ccccc12)C(=O)NC(CCCCNC(=O)OCc1ccccc1)C(=O)NC(C(=O)NC(CSN(C)C(C)=O)C(=O)NO)C(C)OCc1ccccc1 (stereo unspecified)
inactive: [15] > 100 µM | [2] > 100 µM | [16] > 100 µM | [3] > 100 µM | [4] > 100 µM | [5] > 100 µM | [6] > 100 µM | [7] > 100 µM | [8] > 100 µM | [9] > 100 µM | [10] > 100 µM | [11] > 100 µM | [12] > 100 µM | [13] > 100 µM | [14] > 100 µM

O=C(NS(=O)(=O)OCC(Cl)(Cl)Cl)SCCC(F)(F)C(F)(F)C(F)(F)C(F)(F)C(F)(F)C(F)(F)F
inactive: [15] 35.6 µM | [1] 31 µM | [2] 46.9 µM | [16] 19.8 µM | [3] 19 µM | [4] 19.9 µM | [5] 23.1 µM | [6] 23.8 µM | [8] 17.9 µM | [9] 20 µM | [10] 16.5 µM | [11] 32.4 µM | [12] 27.9 µM | [13] 35.5 µM | [14] 38 µM

COc1ccc(NC2Oc3cc4c(cc3C(c3cc(OC)c(O)c(OC)c3)C2C)OCO4)cc1 (stereo unspecified)
active: [6] 0.406 µM
inactive: [15] 3.72 µM | [1] 6.79 µM | [2] 7.4 µM | [16] 4.43 µM | [4] 4.78 µM | [5] 5.36 µM | [7] 1.36 µM | [8] 5.38 µM | [9] 3.33 µM | [10] 4.13 µM | [11] 2.76 µM | [12] 9.06 µM | [13] 15.1 µM | [14] 5.97 µM

COc1cc(C=O)cc(/C=N/c2ccc(S(N)(=O)=O)cc2)c1O
inactive: [1] 23.8 µM | [2] 40.1 µM | [16] 18.2 µM | [3] 2.82 µM | [4] 27.7 µM | [5] 3.92 µM | [6] 9.2 µM | [7] 5.6 µM | [8] 2.88 µM | [9] 21.2 µM | [10] 2.96 µM | [11] 6.65 µM | [12] 14.3 µM | [13] 6.92 µM | [14] 5.51 µM

C[C@]12CC[C@H](OC(=O)Cc3ccc(N(CCCl)CCCl)cc3)CC1=CC[C@@H]1[C@@H]2CC[C@]2(C)C(=O)CC[C@@H]12
inactive: [1] > 100 µM | [2] > 100 µM | [3] > 100 µM | [4] > 100 µM | [5] > 100 µM | [6] > 100 µM | [7] > 100 µM | [8] > 100 µM | [9] > 100 µM | [10] > 100 µM | [11] > 100 µM | [12] 92.5 µM | [13] > 100 µM | [14] > 100 µM

CSc1nc2c(c(=O)n1C)N=C(c1ccc(Cl)cc1)CC(c1ccccc1)N2 (stereo unspecified)
inactive: [15] 31 µM | [1] 33 µM | [2] 24.7 µM | [16] 27.2 µM | [4] 15.7 µM | [5] 17.5 µM | [6] 34.4 µM | [7] 15.7 µM | [8] 16.1 µM | [9] 17.6 µM | [10] 24.3 µM | [11] 18.7 µM | [13] 22.6 µM | [14] 24.5 µM

CCCc1[nH]c2ccccc2c1-c1c(CCC)[nH]c2ccccc12
inactive: [15] 15.5 µM | [1] > 86.1 µM | [2] 11.3 µM | [16] 4.6 µM | [3] 6.95 µM | [4] 16.6 µM | [5] 12.6 µM | [6] 11.9 µM | [7] 7.96 µM | [8] 16 µM | [9] 17.1 µM | [10] 5.42 µM | [11] 10.1 µM | [13] 18.1 µM | [14] 16.7 µM

O=C1NC(=O)C(CC2CCCCCCCCCCC2=O)C(=O)N1 (stereo unspecified)
inactive: [15] > 100 µM | [2] > 100 µM | [16] > 100 µM | [3] > 100 µM | [4] > 100 µM | [5] > 100 µM | [6] > 100 µM | [7] > 100 µM | [9] > 100 µM | [10] > 100 µM | [11] > 100 µM | [13] > 100 µM | [14] 74 µM
